Assay results: ChEMBL document CHEMBL2010645, “N-Caffeoyl serotonin as selective COX-2 inhibitor” (Bioorg Med Chem Lett, 2012)

Key:
[1] = molecular target: T1, Prostaglandin G/H synthase 2 (Homo sapiens, UniProt P35354); assay: Inhibition of COX2 after 5 mins by spectrophotometric analysis
T1 sequence (P35354 whole entry): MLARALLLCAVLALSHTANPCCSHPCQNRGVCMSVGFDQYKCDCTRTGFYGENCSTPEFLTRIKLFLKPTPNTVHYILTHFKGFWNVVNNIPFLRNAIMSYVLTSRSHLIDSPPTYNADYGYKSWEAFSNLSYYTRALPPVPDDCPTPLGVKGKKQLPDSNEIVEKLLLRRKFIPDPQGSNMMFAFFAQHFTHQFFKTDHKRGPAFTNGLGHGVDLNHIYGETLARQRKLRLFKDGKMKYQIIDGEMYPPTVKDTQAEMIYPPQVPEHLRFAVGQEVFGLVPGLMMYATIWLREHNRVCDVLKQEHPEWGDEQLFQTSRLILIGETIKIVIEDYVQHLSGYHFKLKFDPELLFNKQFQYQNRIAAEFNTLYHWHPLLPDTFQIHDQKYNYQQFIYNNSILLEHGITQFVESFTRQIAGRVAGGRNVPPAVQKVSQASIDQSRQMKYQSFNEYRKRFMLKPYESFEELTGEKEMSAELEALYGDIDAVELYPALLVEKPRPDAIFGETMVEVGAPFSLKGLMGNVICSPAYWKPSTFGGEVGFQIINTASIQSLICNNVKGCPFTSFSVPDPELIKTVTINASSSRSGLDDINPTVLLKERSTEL

[2] = molecular target: T2, Prostaglandin G/H synthase 1 (Homo sapiens, UniProt P23219); assay: Inhibition of COX1 after 5 mins by spectrophotometric analysis
[3] = molecular target: T2, Prostaglandin G/H synthase 1; assay: Inhibition of COX1 at 400 uM after 5 mins by spectrophotometric analysis
[4] = molecular target: T3, Prostaglandin G/H synthase 2 (Homo sapiens) (UniProt P35354); assay: Inhibition of COX2 at 400 uM after 5 mins by spectrophotometric analysis
T3 sequence (whole entry): T1 sequence (P35354 whole entry)

[5] = molecular target: T1, Prostaglandin G/H synthase 2; assay: Uncompetitive inhibition of COX2 by Lineweaver-Burk plot analysis

T2 sequence (P23219 whole entry): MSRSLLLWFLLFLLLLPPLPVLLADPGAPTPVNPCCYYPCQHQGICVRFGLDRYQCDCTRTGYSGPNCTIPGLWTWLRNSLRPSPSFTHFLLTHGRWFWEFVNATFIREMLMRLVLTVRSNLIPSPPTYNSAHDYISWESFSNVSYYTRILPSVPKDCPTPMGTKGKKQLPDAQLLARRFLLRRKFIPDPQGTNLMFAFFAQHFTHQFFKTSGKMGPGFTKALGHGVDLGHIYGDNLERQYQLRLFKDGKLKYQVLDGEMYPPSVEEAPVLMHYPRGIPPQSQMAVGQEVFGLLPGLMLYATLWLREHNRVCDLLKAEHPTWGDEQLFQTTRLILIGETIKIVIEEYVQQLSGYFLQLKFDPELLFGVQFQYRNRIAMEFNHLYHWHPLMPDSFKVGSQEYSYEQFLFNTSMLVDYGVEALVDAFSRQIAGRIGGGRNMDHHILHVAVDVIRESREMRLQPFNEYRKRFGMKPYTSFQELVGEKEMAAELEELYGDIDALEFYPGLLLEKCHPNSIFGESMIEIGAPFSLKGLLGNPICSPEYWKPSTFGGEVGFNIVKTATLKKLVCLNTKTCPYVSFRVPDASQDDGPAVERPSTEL

Row | SMILES | IC50 [1] [µM] | IC50 [2] [µM] | inhibition [3] [%] | inhibition [4] [%] | Ki [5] [µM]
1 | NCCc1c[nH]c2ccc(O)cc12 [SEROTONIN] | > 400 | > 400 |  |  | 
2 | O=C(O)/C=C/c1ccc(O)c(O)c1 [CAFFEIC ACID] |  | > 400 |  |  | 
3 | O=C(/C=C/c1ccc(O)cc1)NCCc1c[nH]c2ccc(O)cc12 |  |  | 12.5 | 13.9 | 
4 | COc1ccc(/C=C/C(=O)NCCc2c[nH]c3ccc(O)cc23)cc1 |  |  | 21.3 | 6.5 | 
5 | O=C(/C=C/c1ccccc1)NCCc1c[nH]c2ccc(O)cc12 |  |  | 18.2 | 8.2 | 
6 | CC(=O)Oc1ccccc1C(=O)O |  |  |  | 19.3 | 
7 | COc1cc(/C=C/C(=O)O)cc(OC)c1O [SINAPINATE] | 28 | 39.2 |  |  | 

The remaining lines, values ahead:

Row | IC50 [1] [µM] | IC50 [2] [µM] | inhibition [3] [%] | inhibition [4] [%] | Ki [5] [µM] | SMILES
8 |  |  | 2.7 | 18.8 |  | COc1cc(/C=C/C(=O)NCCc2c[nH]c3ccc(O)cc23)ccc1O
9 | 42.5 | > 400 | 40.6 | 70.5 | 65.5 | O=C(/C=C/c1ccc(O)c(O)c1)NCCc1c[nH]c2ccc(O)cc12 [N-CAFFEOYLSEROTONIN]
10 | > 400 | > 400 | 44.9 | 27.2 |  | COc1cc(/C=C/C(=O)NCCc2c[nH]c3ccc(O)cc23)cc(OC)c1O [N-SINAPOYL SEROTONIN]
11 |  |  | 29.9 | 18.2 |  | COc1ccc(/C=C/C(=O)NCCc2c[nH]c3ccc(O)cc23)cc1OC
12 |  |  | 7 | 8 |  | COc1ccc(/C=C/C(=O)NCCc2c[nH]c3ccc(O)cc23)cc1O
